Reference: US12123010B2, “Plants having increased tolerance to herbicides” (BASF SE, priority 2017, dated 2024)
Values joined by “and” are separate entries in the source; they are usually repeats but may differ in a detail not shown here. Equal entries are not always repeated.

Legend:
[1] = target: Wild Type PPO Enzyme (Amaranthus PPO2, SEQ ID NO: 1) (Amaranthus tuberculatus, UniProt Q0NZW9); experiment: PPO enzyme assay (recombinant), wild type; format: biochemical
[2] = tested on: Variant PPO Enzyme R128A, F420V (Amaranthus PPO2); experiment: biochemical; format: biochemical; conditions: variant R128A, F420V vs wild type
[3] = tested on: Variant PPO Enzyme R128A, F420M (Amaranthus PPO2); format: biochemical; conditions: variant R128A, F420M vs wild type
[4] = tested on: Variant PPO Enzyme L397Q, F420V (Amaranthus PPO2); format: biochemical; conditions: variant L397Q, F420V vs wild type
[5] = tested on: Variant PPO Enzyme L397Q, F420M (Amaranthus PPO2); format: biochemical; conditions: variant L397Q, F420M vs wild type
[6] = tested on: Variant PPO Enzyme L397Q (Amaranthus PPO2); format: biochemical; conditions: variant L397Q vs wild type
[7] = tested on: Variant PPO Enzyme F420V (Amaranthus PPO2); format: biochemical; conditions: variant F420V vs wild type
[8] = tested on: Variant PPO Enzyme F420M (Amaranthus PPO2); experiment: biochemical; format: biochemical; conditions: variant F420M vs wild type
[9] = tested on: Transgenic T2 Arabidopsis plants harboring PPO inhibitor tolerance trait; experiment: Lab based germination assay in 48-well plates (Table i); format: in vivo, Arabidopsis thaliana; conditions: in comparison to wild type plants
[10] = tested on: Transgenic T2 Arabidopsis plants and ARBTH WT MC24 non-transgenic; experiment: Greenhouse post spray test, injury 14 DAT (Tables ii, iii); format: in vivo, Arabidopsis thaliana;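 further: value is percent injury to the sprayed plants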
[11] = tested on: Transgenic T2 or T3 Soybean plants harbouring PPO inhibitor tolerance trait and Jake non transgenic; experiment: Soybean greenhouse post spray, injury score 7 DAT; conditions: in vivo
Method: Soybean cv Jake is transformed as previously described by Siminszky et al., Phytochem Rev. 5:445-458 (2006). After regeneration, transformants are transplanted to soil in small pots, placed in growth chambers (16 hr day/8 hr night; 25° C. day/23° C. night; 65% relative humidity; 130-150 microE m-2 s-1) and subsequently tested for the presence of the T-DNA via Taqman analysis. After a few weeks, healthy, transgenic positive, single copy events are transplanted to larger pots and allowed to grow in the growth chamber. An optimal shoot for cutting is about 3-4 inches tall, with at least two nodes present. Each cutting is taken from the original transformant (mother plant) and dipped into rooting hormone powder (indole-3-butyric acid, IBA). The cutting is then placed in oasis wedges inside a bio-dome. The mother plant is taken to maturity in the greenhouse and harvested for seed. Wild type cuttings are also taken simultaneously to serve as negative controls. The cuttings are kept in the bio-dome for 5-7 days and then transplanted to 3 inch pots and then acclimated in the growth chamber for two more days. Subsequently, the cuttings are transferred to the greenhouse, acclimated for approximately 4 days prior to spray. […] Herbicide injury evaluations are taken at 2, 7, 14 and 21 days after treatment. […]

Chain of Wild Type PPO Enzyme (Amaranthus PPO2, SEQ ID NO: 1) (Q0NZW9 1-534): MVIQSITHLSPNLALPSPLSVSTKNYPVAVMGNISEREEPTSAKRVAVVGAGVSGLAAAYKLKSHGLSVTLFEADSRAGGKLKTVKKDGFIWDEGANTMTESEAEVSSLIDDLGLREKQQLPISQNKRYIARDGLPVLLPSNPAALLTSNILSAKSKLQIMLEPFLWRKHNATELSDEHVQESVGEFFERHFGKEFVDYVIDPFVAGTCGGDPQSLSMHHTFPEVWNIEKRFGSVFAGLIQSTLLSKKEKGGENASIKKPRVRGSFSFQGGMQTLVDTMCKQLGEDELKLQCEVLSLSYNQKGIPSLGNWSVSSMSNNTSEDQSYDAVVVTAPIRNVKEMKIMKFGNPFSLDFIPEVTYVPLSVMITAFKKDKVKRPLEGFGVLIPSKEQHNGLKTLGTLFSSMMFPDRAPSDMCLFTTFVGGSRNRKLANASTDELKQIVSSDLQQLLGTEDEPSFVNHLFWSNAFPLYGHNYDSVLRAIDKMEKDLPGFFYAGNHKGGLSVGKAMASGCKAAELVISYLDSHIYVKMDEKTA

Which results are given for `CCOC(=O)COc1ncccc1Oc1cc(-n2c(=O)cc(C(F)(F)F)n(C)c2=O)c(F)cc1Cl` [Uracilpyridine 1, ethyl 2-[[3-[2-chloro-4-fluoro-5-[3-methyl-2,6-dioxo-4-(trifluoromethyl)pyrimiclin-1-yl]phenoxy]-2-pyridyl]oxy]acetate]?
IC50 [1]: 0.177 nM; Tolerance Factor (R/S) [2]: 915 and 1579; Tolerance Factor (R/S) [3]: 347; Tolerance Factor (R/S) [4]: 12739; Tolerance Factor (R/S) [5]: 2418; Tolerance Factor (R/S) [6]: 13; Tolerance Factor (R/S) [7]: 374; Tolerance Factor (R/S) [8]: 215 and 265; Tolerance Factor ([9]; construct ARBTH_PPO1_S305L_Y426M (Arabidopsis thaliana)): 250; Tolerance Factor ([9]; construct ARBTH_PPO1_WT (Arabidopsis thaliana)): 50; injury (%) ([10]; Table ii, ALOMY_PPO2_R137L_F438V event F, 50 g ai/ha): 20%; injury (%) ([10]; Table ii, ALOMY_PPO2_R137L_F438V event F, 100 g ai/ha): 33%; injury (%) ([10]; Table ii, ALOMY_PPO2_R137L_F438V event F, 200 g ai/ha): 65%; injury (%) ([10]; Table ii, ALOMY_PPO2_R137L_F438V event G, 50 g ai/ha): 5%; injury (%) ([10]; Table ii, ALOMY_PPO2_R137L_F438V event G, 100 g ai/ha): 75%; injury (%) ([10]; Table ii, ALOMY_PPO2_R137L_F438V event G, 200 g ai/ha): 28%; injury (%) ([10]; Table ii, ALOMY_PPO2_TP_AMATU_PPO2_R128M_F420I event R, 50 g ai/ha): 60%; injury (%) ([10]; Table ii, ALOMY_PPO2_TP_AMATU_PPO2_R128M_F420I event R, 100 g ai/ha): 92%; injury (%) ([10]; Table ii, ALOMY_PPO2_TP_AMATU_PPO2_R128M_F420I event R, 200 g ai/ha): 84%; injury (%) ([10]; Table ii, AMATU_PPO2_R128A_F420M event Q, 50 g ai/ha): 55%; injury (%) ([10]; Table ii, AMATU_PPO2_R128A_F420M event Q, 100 g ai/ha): 60%; injury (%) ([10]; Table ii, AMATU_PPO2_R128A_F420M event Q, 200 g ai/ha): 75%; injury (%) ([10]; Table ii, AMATU_PPO2_R128M_F420I event K, 50 g ai/ha): 60%; injury (%) ([10]; Table ii, AMATU_PPO2_R128M_F420I event K, 100 g ai/ha): 73%; injury (%) ([10]; Table ii, AMATU_PPO2_R128M_F420I event K, 200 g ai/ha): 75%; injury (%) ([10]; Table ii, AMATU_PPO2_TP_hemG event R, 50 g ai/ha): 60%; injury (%) ([10]; Table ii, AMATU_PPO2_TP_hemG event R, 100 g ai/ha): 63%; injury (%) ([10]; Table ii, AMATU_PPO2_TP_hemG event R, 200 g ai/ha): 53%; injury (%) ([10]; Table ii, ARBTH WT MC24 non-transgenic, 50 g ai/ha + 1% MSO): 100%; injury (%) ([10]; Table ii, ARBTH WT MC24 non-transgenic, 100 g ai/ha + 1% MSO): 100%; injury (%) ([10]; Table ii, ARBTH WT MC24 non-transgenic, 200 g ai/ha + 1% MSO): 100%; injury (%) ([10]; Table iii, ALOMY_PPO2_R137L_F438M (unnamed lines), 50 g ai/ha): 0%; injury (%) ([10]; Table iii, AMATU_PPO2_L397Q_F420V (unnamed lines), 50 g ai/ha): 40% and 75%; injury (%) ([10]; Table iii, AMATU_PPO2_L397Q_F420V (unnamed lines), 100 g ai/ha): 85% and 65%; injury (%) ([10]; Table iii, AMATU_PPO2_R128A_F420I (unnamed lines), 50 g ai/ha): 60% and 70% and 75%; injury (%) ([10]; Table iii, AMATU_PPO2_R128A_F420I (unnamed lines), 100 g ai/ha): 95% and 65% and 80% and 60%; injury (%) ([10]; Table iii, AMATU_PPO2_R128A_F420L (unnamed lines), 100 g ai/ha): 60% and 90% and 95% and 80%; injury (%) ([10]; Table iii, AMATU_PPO2_R128A_F420V (unnamed lines), 50 g ai/ha): 95% and 90% and 55% and 65%; injury (%) ([10]; Table iii, AMATU_PPO2_R128A_F420V (unnamed lines), 100 g ai/ha): 80% and 95% and 98%; injury (%) ([10]; Table iii, ARBTH WT MC 24 (non-transgenic), 50 g ai/ha + 1% MSO): 100%; injury (%) ([10]; Table iii, ARBTH WT MC 24 (non-transgenic), 100 g ai/ha + 1% MSO): 100%; injury (0-9) [11]: 3 and 2 and 4 and 0 (No Injury)
